In EP4737450A1 (Longwood Pharmaceuticals (Hangzhou) Co., Ltd, priority 2023, dated 2025) one finds IC50 data, which are given here for 41 compounds.

One test has as its target FXIa (Homo sapiens, UniProt P03951). Nature of the test: Inhibitory activity against FXIa in vitro (biochemical assay). Particulars: values given in µM. How it is done: Test Example 1. Test of the inhibitory activities of the compounds of the present invention against plasma kallikrein (PKa), KLK1 and FXIa in vitro.
PKK (R & D, Cat # 2497-SE) and Pro-Phe-Arg-AMC (Nanjing Peptide, Cat # NJP23946) solutions were prepared in reaction buffer (50 mM Tris-HCl, pH 7.5, 250 mM NaCl). The final concentrations of enzyme protein and Pro-Phe-Arg-AMC in the reaction mixture were 10 nM and 60 µM, respectively. The starting concentration of the positive reference substance Avoralstat was 100 nM, 3-fold dilution, 10 + 0 dose. 0.05 µL of compound in 100% DMSO was delivered to a 384-well plate by an acoustic liquid delivery technique (Echo665; nanoliter range). Compound duplex test. 5 µL of 2 × enzyme solution was transferred to a 384 reaction plate and centrifuged at 1000 rpm for 1 minute, incubated at 25°C for 15 minutes; 5 µL of 2 × Pro-Phe-Arg-AMC solution was transferred to a 384 reaction plate, centrifuged at 1000 rpm for 1 minute, incubated at 25°C for 3 hours. […] IC50 values and nonlinear regression curve fitting were obtained using GraphPad Prism software.

The target in a further test is KLK1 (Homo sapiens, UniProt P06870). Nature of the test: Inhibitory activity against KLK1 in vitro (biochemical assay). An excerpt: Test Example 1. Test of the inhibitory activities of the compounds of the present invention against plasma kallikrein (PKa), KLK1 and FXIa in vitro. […]
Sequence of KLK1 (P06870 25-262, species assumed): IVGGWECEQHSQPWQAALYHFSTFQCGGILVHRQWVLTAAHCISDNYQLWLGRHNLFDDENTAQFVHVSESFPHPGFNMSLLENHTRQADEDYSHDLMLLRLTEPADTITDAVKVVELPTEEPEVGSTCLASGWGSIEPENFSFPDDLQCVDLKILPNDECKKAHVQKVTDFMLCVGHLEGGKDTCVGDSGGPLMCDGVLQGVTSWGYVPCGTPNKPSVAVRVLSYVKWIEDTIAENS
A further test has as its target T1, plasma kallikrein (PKa) (Homo sapiens, UniProt P03952).
T1 construct: purchased R & D 2497-SE
Nature of the test: Inhibitory activity against plasma kallikrein in vitro (fluorescence intensity enzyme assay, Pro-Phe-Arg-AMC substrate). It counts as biochemical. In outline: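 Fluorescence intensity enzyme assay with 10 nM enzyme and 60 µM Pro-Phe-Arg-AMC (final concentrations). Compounds in DMSO, tested in duplicate over a dose series. IC50 from nonlinear regression curve fitting.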

The mark [1] stands for this setting: plasma kallikrein enzyme assay, Pro-Phe-Arg-AMC substrate, read-out: PKa IC50.
Where [2] appears, read: PKa IC50, plasma kallikrein enzyme assay, Pro-Phe-Arg-AMC substrate.

Like-named read-outs stand apart in the source and are kept apart here.

T1 sequence (P03952 391-638 limits assumed): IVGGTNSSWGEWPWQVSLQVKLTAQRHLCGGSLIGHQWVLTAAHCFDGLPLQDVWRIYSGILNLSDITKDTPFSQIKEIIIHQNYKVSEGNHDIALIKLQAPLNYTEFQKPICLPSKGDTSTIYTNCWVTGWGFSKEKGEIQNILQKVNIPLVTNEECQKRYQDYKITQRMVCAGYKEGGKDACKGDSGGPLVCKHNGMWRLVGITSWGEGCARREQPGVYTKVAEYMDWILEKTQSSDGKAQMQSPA
T1 sequence (P03952 20-390 partner limits assumed): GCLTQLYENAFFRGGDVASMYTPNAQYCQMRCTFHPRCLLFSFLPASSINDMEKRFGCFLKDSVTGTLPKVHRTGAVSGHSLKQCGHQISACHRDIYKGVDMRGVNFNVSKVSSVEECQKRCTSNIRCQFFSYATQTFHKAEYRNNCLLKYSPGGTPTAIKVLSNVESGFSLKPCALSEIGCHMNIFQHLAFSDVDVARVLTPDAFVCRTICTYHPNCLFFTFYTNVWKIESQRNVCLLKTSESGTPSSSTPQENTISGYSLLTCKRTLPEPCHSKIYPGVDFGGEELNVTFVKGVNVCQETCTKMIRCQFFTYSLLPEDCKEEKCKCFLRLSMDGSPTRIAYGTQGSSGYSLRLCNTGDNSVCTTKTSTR
Sequence of FXIa (P03951 388-625 limits assumed): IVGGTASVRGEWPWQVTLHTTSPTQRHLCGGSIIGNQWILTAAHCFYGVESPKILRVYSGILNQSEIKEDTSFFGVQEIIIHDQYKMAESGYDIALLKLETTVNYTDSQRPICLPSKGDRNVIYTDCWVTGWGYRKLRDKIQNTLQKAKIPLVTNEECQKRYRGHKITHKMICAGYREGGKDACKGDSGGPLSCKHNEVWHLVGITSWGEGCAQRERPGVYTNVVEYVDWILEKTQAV
Sequence of FXIa (P03951 19-387 partner limits assumed): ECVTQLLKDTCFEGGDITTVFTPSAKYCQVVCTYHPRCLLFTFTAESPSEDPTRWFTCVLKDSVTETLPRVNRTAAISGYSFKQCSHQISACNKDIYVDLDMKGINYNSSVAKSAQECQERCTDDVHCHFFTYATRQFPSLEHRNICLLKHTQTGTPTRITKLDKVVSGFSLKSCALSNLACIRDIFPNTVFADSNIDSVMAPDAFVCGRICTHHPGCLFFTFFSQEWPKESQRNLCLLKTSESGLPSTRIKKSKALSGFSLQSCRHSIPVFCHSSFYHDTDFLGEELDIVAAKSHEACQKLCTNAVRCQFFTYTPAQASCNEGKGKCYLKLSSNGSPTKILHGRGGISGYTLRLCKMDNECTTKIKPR

The IC50 is the concentration at which inhibition is half-maximal. As to `N=C(N)c1ccc(CNC(=O)c2cnn(Cc3cnc(N4CC5C(C4)C5(F)F)c(F)c3)c2)cc1` (centres unmarked) [Compound 374], the figures for the IC50 on FXIa, against KLK1 (values given in µM) and on plasma kallikrein (PKa) (setting [1]) were > 10 µM, > 10 µM and 0.06 nM, respectively.
As for `Cc1cc(N)nc(C)c1CNC(=O)c1ncn(Cc2c(F)c(F)c(Cn3ccccc3=O)c(F)c2F)n1` [Compound 22], the values for the IC50 against FXIa, at KLK1 (values given in µM) and at plasma kallikrein (PKa) (setting [1]) were > 10 µM, > 10 µM and 0.63 nM, respectively.
As to `Cc1cc(N)nc(C)c1CNC(=O)c1ncn(C(C)c2ccc(Cn3ccccc3=O)cc2)n1` (centres unmarked) [Compound 50], the IC50 against FXIa was > 10 µM; on KLK1 (values given in µM) it was > 10 µM; on plasma kallikrein (PKa) (setting [1]), 0.89 nM.
On to `Cc1nc(N)c(C)c(C)c1CNC(=O)c1ncn(Cc2ccc(Cn3ccccc3=O)cc2)n1` [Compound 250], for which the figures for the IC50 against FXIa, against KLK1 (values given in µM) and on plasma kallikrein (PKa) (setting [1]) were > 10 µM, > 10 µM and 1.9 nM, respectively.
For `N=C(N)c1ccc(CNC(=O)c2cnn(Cc3ccc(OC4CC4)c(C(F)(F)F)c3)c2)cc1` [Compound 379], the IC50 on FXIa is > 10 µM; at KLK1 (values given in µM), > 10 µM; on plasma kallikrein (PKa) (setting [2]), 0.97 nM.
Turning to `N=C(N)c1ccc(CNC(=O)c2cnn(Cc3ccc(CC4CC4)c(F)c3)c2)cc1` [Compound 262], the IC50 is > 10 µM on FXIa, > 10 µM against KLK1 (values given in µM) and 2.67 nM at plasma kallikrein (PKa) (setting [1]).
For `N#Cc1cc(N2CC3C(C2)C3(F)F)ccc1Cn1cnc(C(=O)NCc2ccc3c(N)nccc3c2)n1` (centres unmarked) [Compound 43], the IC50 at FXIa was > 10 µM; against KLK1 (values given in µM) it was > 10 µM; at plasma kallikrein (PKa) (setting [1]), 0.92 nM.
Turning to `Nc1ccnc(CNC(=O)c2cn(Cc3ccc(Cn4ccccc4=O)cc3)nc2C2COC2)c1F` [Compound 274], the IC50 at FXIa is > 10 µM; against KLK1 (values given in µM) it was > 10 µM; at plasma kallikrein (PKa) (setting [1]), 0.6 nM.
For the compound `Cc1cc(N)nc(C)c1CNC(=O)c1ncn(Cc2cc(Cl)c(Cn3ccccc3=O)cc2Cl)n1` [Compound 80], the IC50 at FXIa was > 10 µM; against KLK1 (values given in µM), > 10 µM; on plasma kallikrein (PKa) (setting [1]), 0.096 nM.
On to `N=C(N)c1ccc(CNC(=O)c2cnn(Cc3cc(F)c(OCC4CC4)c(F)c3)c2)cc1` [Compound 345], for which the values for the IC50 on FXIa, on KLK1 (values given in µM) and on plasma kallikrein (PKa) (setting [1]) were > 10 µM, > 10 µM and 1.98 nM, respectively.
As for `N=C(N)c1ccc(CNC(=O)c2cnn(Cc3ccc(N4CCC(F)(F)CC4)c(C(F)(F)F)c3)c2)cc1` [Compound 387], the IC50 at FXIa is > 10 µM; against KLK1 (values given in µM) it was > 10 µM; at plasma kallikrein (PKa) (setting [1]) it was 0.08 nM.
Consider `COc1ccnc(CNC(=O)c2cn(Cc3ccc(Cn4ccccc4=O)cc3)nc2N2CC(C)(O)C2)c1F` [Compound 296], for which the IC50 is > 10 µM on FXIa, > 10 µM against KLK1 (values given in µM) and 2.22 nM at plasma kallikrein (PKa) (setting [2]).
As to `COc1ccnc(CNC(=O)c2cn(Cc3ccc(Cn4ccccc4=O)cc3)nc2C2C(C)(C)C2(F)F)c1F` (centres unmarked) [Compound 263], the IC50 against FXIa was > 10 µM; against KLK1 (values given in µM) it was > 10 µM; on plasma kallikrein (PKa) (setting [1]) it was 0.59 nM.
With `COCc1nn(Cc2ccc(Cn3ccccc3=O)cc2)cc1C(=O)NCc1c(C)cc2nccn2c1C` [Compound 143], the IC50 at FXIa is > 10 µM; on KLK1 (values given in µM), > 10 µM; at plasma kallikrein (PKa) (setting [1]) it was 0.65 nM.
On to `COc1ccc(Cl)c(CNC(=O)c2cn(Cc3ccc(Cn4ccccc4=O)cc3)nc2COCC2(F)COC2)c1F` [Compound 289], for which the IC50 is > 10 µM at FXIa, > 10 µM against KLK1 (values given in µM) and 2.31 nM on plasma kallikrein (PKa) (setting [1]).
As for `Cc1cc(N)nc(C)c1CNC(=O)c1cc(Cc2ccc(Cn3ccccc3=O)cc2)cn1C` [Compound 62], the IC50 on FXIa is > 10 µM; at KLK1 (values given in µM) it was > 10 µM; on plasma kallikrein (PKa) (setting [1]) it was 0.12 nM.
Regarding `COCc1nn(Cc2c(F)c(F)c(Cn3ccccc3=O)c(F)c2F)cc1C(=O)NCc1c(C)cc(N)nc1C` [Compound 28], the IC50 is > 10 µM against FXIa, > 0.5 µM on KLK1 (values in nM) and 2.33 nM on plasma kallikrein (PKa) (setting [1]).
On to `CCc1c(N)nc(C)c(CNC(=O)c2ncn(Cc3ccc(Cn4ccccc4=O)cc3)n2)c1C` [Compound 257], for which the IC50 against FXIa is > 10 µM; on KLK1 (values given in µM) it was > 10 µM; on plasma kallikrein (PKa) (setting [1]) it was 0.67 nM.
With `N=C(N)c1ccc(CNC(=O)c2cnn(Cc3cc(F)c(CC4CC4)c(F)c3)c2)cc1` [Compound 380], the IC50 on FXIa was > 10 µM; against KLK1 (values given in µM), > 10 µM; at plasma kallikrein (PKa) (setting [1]), 0.27 nM.
Take `Cc1cc2nccn2c(C)c1CNC(=O)c1cn(Cc2ccc(N3CC4C(C3)C4(F)F)cc2C#N)nc1C(F)(F)F` (centres unmarked) [Compound 204]: the results for the IC50 on FXIa, at KLK1 (values given in µM) and at plasma kallikrein (PKa) (setting [1]) were > 10 µM, > 10 µM and 1.23 nM, respectively.
As for `Cc1nc(C)n(Cc2ccc(Cn3cc(C(=O)NCc4ccc(C(=N)N)cc4F)cn3)cc2)n1` [Compound 351], the values for the IC50 at FXIa, on KLK1 (values given in µM) and at plasma kallikrein (PKa) (setting [1]) were > 10 µM, > 10 µM and 1.13 nM, respectively.
Take `N=C(N)c1ccc(CNC(=O)c2cnn(Cc3cc(F)c(OC4CC4)c(F)c3)c2)cc1` [Compound 365]: the IC50 against FXIa is > 10 µM; against KLK1 (values given in µM), > 10 µM; at plasma kallikrein (PKa) (setting [1]) it was 1.87 nM.
Turning to `Cc1cc(N)nc(C)c1CNC(=O)c1cc(Cc2ccc(Cn3ccccc3=O)cc2)ccn1` [Compound 13], the IC50 at FXIa is > 10 µM; at KLK1 (values given in µM), > 10 µM; on plasma kallikrein (PKa) (setting [2]) it was 0.516 nM.
As to `N=C(N)c1ccc(CNC(=O)c2cnn(Cc3c(F)cc(N4CC5C(C4)C5(F)F)cc3F)c2)cc1` (centres unmarked) [Compound 368], the IC50 was > 10 µM against FXIa, > 10 µM on KLK1 (values given in µM) and 0.19 nM at plasma kallikrein (PKa) (setting [1]).
As to `N=C(N)c1ccc(CNC(=O)c2cnn(Cc3ccc(CC4CC4)cc3)c2)cc1F` [Compound 321], the values for the IC50 against FXIa, on KLK1 (values given in µM) and on plasma kallikrein (PKa) (setting [1]) were > 10 µM, > 10 µM and 2.71 nM, respectively.
As for `COCc1nn(Cc2ccc(Cn3ccccc3=O)cc2)cc1C(=O)NCc1ccc2c(N)nccc2c1` [Compound 71], the IC50 is > 10 µM against FXIa, > 10 µM on KLK1 (values given in µM) and 0.19 nM on plasma kallikrein (PKa) (setting [1]).
With `N=C(N)c1ccc(CNC(=O)c2cnn(Cc3ccc(CC4CC4)cc3)c2)cc1` [Compound 105], the values for the IC50 against FXIa, at KLK1 (values given in µM) and on plasma kallikrein (PKa) (setting [1]) were > 10 µM, > 10 µM and 0.26 nM, respectively.
Take `COCc1nn(Cc2ccc(Cn3ccccc3=O)cc2)cc1C(=O)NCc1ncc2c(c1F)NCC2` [Compound 392]: the IC50 was > 10 µM against FXIa, > 10 µM against KLK1 (values given in µM) and 2.44 nM on plasma kallikrein (PKa) (setting [1]).
`N=C(N)c1ccc(CNC(=O)c2cnn(Cc3ccc(CC4CC4)nc3)c2)cc1` [Compound 373]: the IC50 at FXIa is > 10 µM; at KLK1 (values given in µM) it was > 10 µM; on plasma kallikrein (PKa) (setting [1]) it was 0.56 nM.
As for `COc1ccnc(CNC(=O)c2cn(Cc3ccc(Cn4ccccc4=O)cc3)nc2-c2c(C)cnn2C)c1F` [Compound 221, N-((3-fluoro-4-methoxypyridin-2-yl)methyl)-2',4'-dimethyl-1-(4-((2-oxopyridin-1(2H)yl)methyl)benzyl)-1H,2'H-[3,3'-bispyrazole]-4-carboxamide], the IC50 on FXIa and on KLK1 (values given in µM) was > 10 µM throughout.
For the compound `Cc1cc(N)nc(C)c1CNC(=O)c1cnn(Cc2ccc(N3CC4C(C3)C4(F)F)cc2C#N)c1` (centres unmarked) [Compound 20], the IC50 at FXIa was > 10 µM; at plasma kallikrein (PKa) (read-out: PKa IC50), 0.155 nM.
With `COCc1nn(Cc2ccc(Cn3ccccc3=O)cc2)cc1C(=O)NCc1ncc2c(c1F)N(C)CC2` [Compound 146], the IC50 on FXIa and against KLK1 (values given in µM) was > 10 µM in each case.
For `COCc1nn(Cc2ccc(Cn3ccccc3=O)cc2)cc1C(=O)NCc1nccc(OC)c1F` [KVD900, reference compound], the IC50 against FXIa and against KLK1 (values given in µM) was > 10 µM in each case.
`N#Cc1cc(N2CCC(F)(F)CC2)ccc1Cn1cc(C(=O)NCc2ccc(C(=N)N)cc2)cn1` [Compound 158]: the IC50 at FXIa and against KLK1 (values given in µM) was > 10 µM throughout.
With `N=C(N)c1cnc(CNC(=O)c2cnn(Cc3ccc(CC4CC4)cc3)c2)nc1` [Compound 329], at plasma kallikrein (PKa) (setting [1]), the IC50 amounted to 42.4 nM.
Take `COc1ccnc(CNC(=O)c2cn(Cc3ccc(Cn4ccccc4=O)cc3)nc2N2CC(C)(OC)C2)c1F` [Compound 232]: the IC50 at plasma kallikrein (PKa) (setting [1]) worked out at 7.15 nM.
For `Cc1cnn(C)c1-c1nn(Cc2ccc(Cn3ccccc3=O)cc2)cc1C(=O)NCc1nccc(N(C)C)c1F` [Compound 166], the IC50 at plasma kallikrein (PKa) (setting [1]) worked out at 4.59 nM.
As to `COCC1CN(c2nn(Cc3ccc(Cn4ccccc4=O)cc3)cc2C(=O)NCc2nccc(OC)c2F)C1` [Compound 306], on plasma kallikrein (PKa) (setting [1]), the IC50 is 12.8 nM.
Turning to `COCc1nn(Cc2ccc(Cn3ccccc3=O)cc2)cc1C(=O)NCc1ccc2nccn2c1` [Compound 126], the IC50 at plasma kallikrein (PKa) (setting [1]) is 229 nM.
Regarding `Nc1ccnc(CNC(=O)c2cn(Cc3ccc(Cn4ccccc4=O)cc3)nc2N2CC(F)(F)C2)c1F` [Compound 268], at plasma kallikrein (PKa) (setting [1]), the IC50 is 68.6 nM.
On the same count and under the same terms, the same measure for `COCc1nn(Cc2ccc(N3CCCCC3=O)cc2C#N)cc1C(=O)NCc1nccc(OC)c1F` [Compound 182]: > 1000 nM.
